In ChEMBL document CHEMBL6134844, “Development of Next-Generation Antimalarial Acridones with Radical Cure Potential” (J Med Chem, 2025):

Key:
Plasmodium falciparum [1] = test: Antiplasmodial activity against asexual blood-stage (ABS) CQ-sensitive Plasmodium falciparum D6 infected in human erythrocytes assessed as reduction in fluorescence measured after 72 hrs by Malaria SYBR Green I-based Fluorescence (MSF) assay; format: functional, organism-based; conditions: D6, Erythrocyte
Plasmodium falciparum [2] = test: Antiplasmodial activity against asexual blood-stage (ABS) MDR Plasmodium falciparum Dd2 infected in human erythrocytes assessed as reduction in fluorescence measured after 72 hrs by Malaria SYBR Green I-based Fluorescence (MSF) assay; format: functional, organism-based; conditions: Dd2, Erythrocyte
Plasmodium falciparum [3] = test: Antiplasmodial activity against asexual blood-stage (ABS) ATV-resistant clinical isolate Plasmodium falciparum Tm90-C2B infected in human erythrocytes assessed as reduction in fluorescence measured after 72 hrs by Malaria SYBR Green I-based Fluorescence (MSF) assay; format: functional, organism-based; conditions: Erythrocyte
HepG2 = test: Cytotoxicity against human HepG2 cells assessed as cell viability measured after 48 hrs by MTT assay; format: functional, cell-based; conditions: HepG2, 48 h
Plasmodium cynomolgi [4] = test: (§1) Antiplasmodial activity against hypnozoite Plasmodium cynomolgi B strain infected in Macaca mulatta hepatocytes incubated with sporozoite containing salivary gland homogenate obtained from dissected Anopheles dirus mosquitoes (infected with Plasmodium cynomolgi B strain) treatment started on day 4 post infection and continued daily for 4 days into fresh changed media until day 8 assessed as Liver stage (LS) activity by measuring prophylactic mode by immunofluorescent staining analysis; format: functional, organism-based; conditions: Hepatocyte
Plasmodium cynomolgi [5] = test: as §1, with “schizont” for “hypnozoite”; format: functional, organism-based; conditions: Hepatocyte
Plasmodium cynomolgi [6] = test: as §1, with “radical cure” for “prophylactic”; format: functional, organism-based; conditions: Hepatocyte
Plasmodium cynomolgi [7] = test: as §1, with “schizont” for “hypnozoite”, “radical cure” for “prophylactic”; format: functional, organism-based; conditions: Hepatocyte
[8] = as §1, with “Selectivity index, ratio of CC50 for Macaca mulatta hepatocytes to IC50 for antiplasmodial” for “Antiplasmodial”, “schizont” for “hypnozoite”; format: toxicity, cell-based; conditions: rhesus monkey, read-out: Selectivity Index
[9] = Toxicity in CF1 mouse infected with asexual blood-stage (ABS) Plasmodium yoelii MRA-428 assessed as hunching at 0.3 to 30 mg/kg, po treated 24 hrs post infection measured after 4 days; format: organism-based; conditions: in vivo, 96 h, dose 0.3-30 mg/kg, time 4 day
[10] = Toxicity in CF1 mouse infected with asexual blood-stage (ABS) Plasmodium yoelii MRA-428 assessed as hyperactivity at 0.3 to 30 mg/kg, po treated 24 hrs post infection measured after 4 days; format: organism-based; conditions: in vivo, 96 h, dose 0.3-30 mg/kg, time 4 day
[11] = Toxicity in CF1 mouse infected with asexual blood-stage (ABS) Plasmodium yoelii MRA-428 assessed as lethargy at 0.3 to 30 mg/kg, po treated 24 hrs post infection measured after 4 days; format: organism-based; conditions: in vivo, 96 h, dose 0.3-30 mg/kg, time 4 day
[12] = Toxicity in CF1 mouse infected with asexual blood-stage (ABS) Plasmodium yoelii MRA-428 assessed as ruffled hair at 0.3 to 30 mg/kg, po treated 24 hrs post infection measured after 4 days; format: organism-based; conditions: in vivo, 96 h, dose 0.3-30 mg/kg, time 4 day
[13] = Toxicity in CF1 mouse infected with asexual blood-stage (ABS) Plasmodium yoelii MRA-428 assessed as weight loss at 0.3 to 30 mg/kg, po treated 24 hrs post infection measured after 4 days; format: organism-based; conditions: in vivo, 96 h, dose 0.3-30 mg/kg, time 4 day
Hepatocyte = test: Cytotoxicity against Macaca mulatta hepatocytes assessed as cell viability measured after 48 hrs by MTT assay; format: toxicity, cell-based; conditions: rhesus monkey, 48 h
[14] = mouse, microsomes, 1 h
[15] = as §1, with “Selectivity index, ratio of CC50 for Macaca mulatta hepatocytes to IC50 for antiplasmodial” for “Antiplasmodial”; format: toxicity, cell-based; conditions: rhesus monkey, read-out: Selectivity Index
[16] = as §1, with “Selectivity index, ratio of CC50 for Macaca mulatta hepatocytes to IC50 for antiplasmodial” for “Antiplasmodial”, “radical cure” for “prophylactic”; format: toxicity, cell-based; conditions: rhesus monkey, read-out: Selectivity Index
[17] = as §1, with “Selectivity index, ratio of CC50 for Macaca mulatta hepatocytes to IC50 for antiplasmodial” for “Antiplasmodial”, “schizont” for “hypnozoite”, “radical cure” for “prophylactic”; format: toxicity, cell-based; conditions: rhesus monkey, read-out: Selectivity Index
[18] = human, microsomes, 1 h

SMILES | IC50 (Plasmodium falciparum [1]) | IC50 (Plasmodium falciparum [2]) | IC50 (Plasmodium falciparum [3]) | IC50 (HepG2) | IC50 (Plasmodium cynomolgi [4]) | IC50 (Plasmodium cynomolgi [5]) | IC50 (Plasmodium cynomolgi [6]) | IC50 (Plasmodium cynomolgi [7]) | selectivity ratio at 96 h [8] | Activity [9] | Activity [10] | Activity [11] | Activity [12] | Activity [13] | CC50 (Hepatocyte) | CLH [14] | selectivity ratio at 96 h [15] | selectivity ratio at 96 h [16] | selectivity ratio at 96 h [17] | t1/2 [18]
CCCN(CCC)CCOc1ccc2c(=O)c3c([nH]c2c1)CCCC3 | 0.0245 µM | 0.0643 µM | 0.0461 µM | > 200 µM | > 20 µM | 9.83 µM | > 20 µM | > 20 µM | > 2.03 | Non-toxic | Non-toxic | Non-toxic | Non-toxic | Non-toxic | > 20 µM | 492 µL/min/mg | – | – | – | –
O=c1c2c([nH]c3cc(OCc4ccc(OC(F)(F)F)cc4)ccc13)CCCC2 | 0.00602 µM | 0.0275 µM | 0.0435 µM | > 200 µM | > 20 µM | 3.62 µM | > 20 µM | > 20 µM | > 5.52 | Non-toxic | Non-toxic | Non-toxic | Non-toxic | Non-toxic | > 20 µM | 31.9 µL/min/mg | – | – | – | –
O=c1c2c([nH]c3cccc(Oc4ccc(OC(F)(F)F)cc4)c13)CCCC2 | > 2.5 µM | > 2.5 µM | > 2.5 µM | > 200 µM | 7.62 µM | 3.34 µM | 3.83 µM | 2.92 µM | 1.79 | Non-toxic | Non-toxic | Non-toxic | Non-toxic | Non-toxic | 6 µM | 48 µL/min/mg | 0.787 | 1.57 | 2.05 | –
CCN(CC)CCOc1ccc2c(=O)c3c([nH]c2c1)CCCC3 | > 2.5 µM | > 2.5 µM | > 2.5 µM | – | > 20 µM | 14 µM | > 20 µM | > 20 µM | > 1.43 | Non-toxic | Non-toxic | Non-toxic | Non-toxic | Non-toxic | > 20 µM | > 500 µL/min/mg | – | – | – | > 1 h
CCN(CC)CCCOc1ccc2c(=O)c3c([nH]c2c1)CCCC3 | > 2.5 µM | > 2.5 µM | > 2.5 µM | – | > 20 µM | 11 µM | > 20 µM | > 20 µM | > 1.82 | Non-toxic | Non-toxic | Non-toxic | Non-toxic | Non-toxic | > 20 µM | > 500 µL/min/mg | – | – | – | > 1 h
O=c1c2c([nH]c3cc(OC(F)(F)F)ccc13)CCCC2 | 0.0524 µM | 0.0847 µM | 0.0586 µM | > 200 µM | > 20 µM | 3.96 µM | > 20 µM | > 20 µM | > 5.05 | Non-toxic | Non-toxic | Non-toxic | Non-toxic | Non-toxic | > 20 µM | 21.3 µL/min/mg | – | – | – | –
